Experimental data taken from patent publication US20120009271A1, “METHOD OF DISEASE-INDUCED AND RECEPTOR-MEDIATED STEM CELL NEUROPROTECTION” (MEDICAL COLLEGE OF GEORGIA, priority 2009, published 2012).
“Also recorded” adds a separate entry of the source.

Legend:
[1] = test system: cultured human amnion stem cells; test: Oxidative stress (H202) in cultured human amnion stem cells, cell survival (Hoechst 33258, trypan blue); type: cell-based; conditions: pre-treatment with melatonin 100 μM; H202 100 μM at day 4, survival at day 5; versus non-melatonin treated cells
[2] = test system: cultured human amniotic epithelial cells (AECs); test: Immunocytochemistry of proliferation and differentiation of cultured AECs with or without melatonin; type: cell-based
Description: This is true for both control cells and cells treated with melatonin.

[3] = in vivo; cited from earlier work
[4] = test system: OGD-exposed primary rat cells; test: Oxygen glucose deprivation (OGD) injury model, cell viability (Trypan blue and MTT assay); conditions: AECs 5,000 per well or melatonin 100 uM; 20,000 rat cells per well
Description: To reveal the neuroprotective effects of these stem cells, cultured primary rat cells (gestation age 18) were initially exposed to OGD and immediately thereafter stem cells or conditioned media (harvested from OGD-exposed stem cells over 7 days) were added. Parallel sister cultures included non-OGD exposed rat cells (positive control). Stem cell doses were varied at 0 (negative control), 2.5%, 5%, 10% or 25% of total cell population per well. After 3 hours of stem cell or conditioned media treatment, cell viability (Trypan blue and MTT assay) and ELISA were performed.
Cultured primary rat cells (gestation age 18) were initially exposed to the oxygen glucose deprivation (OGD) injury model (92% N2 and 8% O2 gas for 90 minutes), and immediately thereafter AECs, AMCs or conditioned media (harvested from AECs or AMCs cultured over 7 days) were added to the OGD-exposed cells. Parallel sister cultures included non-OGD exposed rat cells (positive control). Placenta cell doses were varied at 0 (negative control), 2.5%, 5%, 10% or 25% of total cell population per well. After 3 hours of placenta cell or conditioned media treatment, cell viability (Trypan blue and MTT assay) and ELISA were performed.
Cultured primary rat cells (gestation age 18; 20,0000 cells per well) were initially exposed to the OGD injury model (92% N2 and 8% 02 gas for 90 minutes). […]

COc1ccc2[nH]cc(CCNC(C)=O)c2c1 [melatonin, N-acetyl-5-methoxytryptamine]
cell survival after oxidative stress [1]: protected against cell death; also recorded: significantly greater
total TuJ1 positive cells in 5 fields (dendrite +/-) ([2]; 100 μM Melatonin versus control, FIG. 14A): increased the total number of cells expressing Tull
total nestin positive or nestin/MelR1 positive cells in 5 fields ([2]; 100 μM Melatonin versus control, FIG. 14B): increases the total number of nestin positive or nestin/MelR1 positive expressing cells
neural differentiation (TuJ1 and GFAP) of melatonin receptor 1-expressing AECs ([2]; melatonin in growth media): enhanced neural differentiation
proliferation of melatonin receptor 1-expressing AECs ([2]; melatonin in growth media): dose-dependently suppressed proliferation
half life [3]: 30 to 53 min
neuroprotection against experimental stroke (OGD), single treatment [4]: exerted neuroprotection
